Reference: patent US8815535B2, “Disk diffusion assay for oritavancin” (The Medicines Company, priority 2011, dated 2014)
≈ marks a conversion by molar mass, not a printed value.

Key:
Assay type in all cases: cell-based
hVISA NRS2 [1] = assay: Disk diffusion assay (zone of inhibition); settings: Staphylococcus aureus, Oxoid disks, 20 μl of 18 mg/ml oritavancin in 5% P80, stored 30 days at room temperature, prediffusion 6 hours at 4° C., read-out: Inhibition zone diameter
MSSA U148267 = assay: Broth microdilution (BMD) MIC; settings: Staphylococcus aureus, read-out: Oritavancin BMD MIC
Source text: (§1) To date, only the broth microdilution (BMD) minimal inhibitory concentration (MIC) test is a reference method accepted by the Clinical Laboratory Standards Institute (CLSI) for use in determining the susceptibility of a bacterial isolate to oritavancin (Methods for Dilution Antimicrobial Susceptibility Tests for Bacteria That Grow Aerobically; Approved Standard, CLSI document M7-A8, 8th ed. Clinical and Laboratory Standards Institute, Wayne, Pa. 2009; Performance Standards for Antimicrobial Susceptibility Testing; Eighteenth Informational Supplement, CLSI document M100-S18, 7th ed. Clinical and Laboratory Standards Institute, Wayne, Pa. 2008).

MRSA NRS123 = assay: Broth microdilution (BMD) MIC; settings: Staphylococcus aureus, read-out: Oritavancin BMD MIC
Source text: as §1

MSSA T811355 = assay: Broth microdilution (BMD) MIC; settings: Staphylococcus aureus, read-out: Oritavancin BMD MIC
Source text: as §1

MRSA T998528 = assay: Broth microdilution (BMD) MIC; settings: Staphylococcus aureus, read-out: Oritavancin BMD MIC
Source text: as §1

MRSA U260847 = assay: Broth microdilution (BMD) MIC; settings: Staphylococcus aureus, read-out: Oritavancin BMD MIC
Source text: as §1

MRSA NRS121 = assay: Broth microdilution (BMD) MIC; settings: Staphylococcus aureus, read-out: Oritavancin BMD MIC
Source text: as §1

MRSA T998608 = assay: Broth microdilution (BMD) MIC; settings: Staphylococcus aureus, read-out: Oritavancin BMD MIC
Source text: as §1

MSSA S815247 = assay: Broth microdilution (BMD) MIC; settings: Staphylococcus aureus, read-out: Oritavancin BMD MIC
Source text: as §1

MRSA V406957 = assay: Broth microdilution (BMD) MIC; settings: Staphylococcus aureus, read-out: Oritavancin BMD MIC
Source text: as §1

MRSA U206056 = assay: Broth microdilution (BMD) MIC; settings: Staphylococcus aureus, read-out: Oritavancin BMD MIC
Source text: as §1

VISA NRS3 = assay: Broth microdilution (BMD) MIC; settings: Staphylococcus aureus, read-out: Oritavancin BMD MIC
Source text: as §1

MSSA U933236 = assay: Broth microdilution (BMD) MIC; settings: Staphylococcus aureus, read-out: Oritavancin BMD MIC
Source text: as §1

MSSA S815246 = assay: Broth microdilution (BMD) MIC; settings: Staphylococcus aureus, read-out: Oritavancin BMD MIC
Source text: as §1

VISA Mu50 (ATCC 700699) = assay: Broth microdilution (BMD) MIC; settings: Staphylococcus aureus; VISA ATCC 700699 (Mu50); read-out: Oritavancin BMD MIC
Source text: as §1

MSSA T759545 = assay: Broth microdilution (BMD) MIC; settings: Staphylococcus aureus, read-out: Oritavancin BMD MIC
Source text: as §1

MSSA U781969 = assay: Broth microdilution (BMD) MIC; settings: Staphylococcus aureus, read-out: Oritavancin BMD MIC
Source text: as §1

MRSA NRS123-ORI^RS = assay: Broth microdilution (BMD) MIC; settings: Staphylococcus aureus; MRSA NRS123-ORI^RS (oritavancin reduced-susceptibility isolate)
Source text: as §1

MRSA U933237 = assay: Broth microdilution (BMD) MIC; settings: Staphylococcus aureus, read-out: Oritavancin BMD MIC
Source text: as §1

MRSA Q670607 = assay: Broth microdilution (BMD) MIC; settings: Staphylococcus aureus, read-out: Oritavancin BMD MIC
Source text: as §1

VISA NRS402 = assay: Broth microdilution (BMD) MIC; settings: Staphylococcus aureus, read-out: Oritavancin BMD MIC
Source text: as §1

MSSA ATCC 29213 = assay: Broth microdilution (BMD) MIC; settings: Staphylococcus aureus, read-out: Oritavancin BMD MIC
Source text: as §1

MRSA Q141067 = assay: Broth microdilution (BMD) MIC; settings: Staphylococcus aureus, read-out: Oritavancin BMD MIC
Source text: as §1

MSSA T972018 = assay: Broth microdilution (BMD) MIC; settings: Staphylococcus aureus, read-out: Oritavancin BMD MIC
Source text: as §1

MRSA Q670505 = assay: Broth microdilution (BMD) MIC; settings: Staphylococcus aureus, read-out: Oritavancin BMD MIC
Source text: as §1

MRSA U784439 = assay: Broth microdilution (BMD) MIC; settings: Staphylococcus aureus, read-out: Oritavancin BMD MIC
Source text: as §1

MRSA V257345 = assay: Broth microdilution (BMD) MIC; settings: Staphylococcus aureus, read-out: Oritavancin BMD MIC
Source text: as §1

MRSA V288615 = assay: Broth microdilution (BMD) MIC; settings: Staphylococcus aureus, read-out: Oritavancin BMD MIC
Source text: as §1

MSSA V406985 = assay: Broth microdilution (BMD) MIC; settings: Staphylococcus aureus, read-out: Oritavancin BMD MIC
Source text: as §1

MRSA NRS121-ORI^RS = assay: Broth microdilution (BMD) MIC; settings: Staphylococcus aureus; MRSA NRS121-ORI^RS (oritavancin reduced-susceptibility isolate)
Source text: as §1

MRSA ATCC 33591 = assay: Broth microdilution (BMD) MIC; settings: Staphylococcus aureus, read-out: Oritavancin BMD MIC
Source text: as §1

hVISA NRS36 = assay: Broth microdilution (BMD) MIC; settings: Staphylococcus aureus, read-out: Oritavancin BMD MIC
Source text: as §1

MSSA Q141066 [2] = assay: Broth microdilution (BMD) MIC; settings: Staphylococcus aureus, read-out: Oritavancin BMD MIC
Source text: as §1

hVISA NRS2 [3] = assay: Broth microdilution (BMD) MIC; settings: Staphylococcus aureus, read-out: Oritavancin BMD MIC
Source text: as §1

MSSA Q141066 [4] = assay: Disk diffusion assay (zone of inhibition); settings: Staphylococcus aureus, 20 μl of 1.25 mg/ml in 4% P80/Span 80 (1:1), calcium alginate swabs, dried overnight, duplicate, read-out: Inhibition zone diameter
Description: Oritavancin powder was dissolved in freshly-prepared solutions of the indicated excipients at concentrations of 0.625, 1.25, 2.5, 5, and 10 mg/ml (adjusted for potency based on lot 875561L00 purity of 83.1%) by vortexing for a minimum of 5 minutes. Oritavancin solutions in the various excipients, while not visually clear, were free from any apparent particulates as assessed visually. Sterile Oxoid blank disks were impregnated with 20 μl of these oritavancin solutions, resulting in oritavancin disk loads ranging from 12.5 to 200 μg. Unless indicated otherwise, disks were allowed to dry overnight at room temperature prior to use.
Bacterial suspensions from isolated colonies on overnight cation-adjusted Mueller Hinton agar plates were prepared in sterile saline and adjusted to an optical density of 0.1 at 600 nm Standard cation-adjusted Mueller Hinton agar plates (90 mm diameter) were seeded with bacterial suspensions by initially swabbing the center of plate then moving outward. Swabbing was continued at a right angle and then at an oblique angle to the first and second swabs. Disks were placed upon the seeded plates with sterile forceps. Plates were then incubated overnight at 37° C. and inhibition zone diameters were measured with a ruler and reported in millimeters.

CN[C@H](CC(C)C)C(=O)N[C@H]1C(=O)N[C@@H](CC(N)=O)C(=O)N[C@H]2C(=O)N[C@H]3C(=O)N[C@H](C(=O)N[C@H](C(=O)O)c4cc(O)cc(O)c4-c4cc3ccc4O)[C@H](O[C@H]3C[C@](C)(N)[C@@H](O)[C@H](C)O3)c3ccc(c(Cl)c3)Oc3cc2cc(c3O[C@@H]2O[C@H](CO)[C@@H](O)[C@H](O)[C@H]2O[C@H]2C[C@](C)(NCc3ccc(-c4ccc(Cl)cc4)cc3)[C@@H](O)[C@H](C)O2)Oc2ccc(cc2Cl)[C@H]1O [oritavancin, N-(4-(4-chlorophenyl)benzyl)A82846B]
zone of inhibition at 18000 µg/mL (hVISA NRS2 [1]): 16.5 mm
MIC (MSSA U148267): 0.015 µg/mL (≈ 0.00837 µM)
MIC (MRSA NRS123): 0.03 µg/mL (≈ 0.0167 µM)
MIC (MSSA T811355): 0.03 µg/mL (≈ 0.0167 µM)
MIC (MRSA T998528): 0.015 µg/mL (≈ 0.00837 µM)
MIC (MRSA U260847): 0.06 µg/mL (≈ 0.0335 µM)
MIC (MRSA NRS121): 0.06 µg/mL (≈ 0.0335 µM)
MIC (MRSA T998608): 0.03 µg/mL (≈ 0.0167 µM)
MIC (MSSA S815247): 0.015 µg/mL (≈ 0.00837 µM)
MIC (MRSA V406957): 0.12 µg/mL (≈ 0.0669 µM)
MIC (MRSA U206056): 0.25 µg/mL (≈ 0.139 µM)
MIC (VISA NRS3): 1 µg/mL (≈ 0.558 µM)
MIC (MSSA U933236): 0.06 µg/mL (≈ 0.0335 µM)
MIC (MSSA S815246): 0.03 µg/mL (≈ 0.0167 µM)
MIC (VISA Mu50 (ATCC 700699)): 1 µg/mL (≈ 0.558 µM)
MIC (MSSA T759545): 0.015 µg/mL (≈ 0.00837 µM)
MIC (MSSA U781969): 0.03 µg/mL (≈ 0.0167 µM)
MIC (MRSA NRS123-ORI^RS): 0.25 µg/mL (≈ 0.139 µM)
MIC (MRSA U933237): 0.12 µg/mL (≈ 0.0669 µM)
MIC (MRSA Q670607): 0.03 µg/mL (≈ 0.0167 µM)
MIC (VISA NRS402): 1 µg/mL (≈ 0.558 µM)
MIC (MSSA ATCC 29213): 0.06 µg/mL (≈ 0.0335 µM)
MIC (MRSA Q141067): 0.015 µg/mL (≈ 0.00837 µM)
MIC (MSSA T972018): 0.5 µg/mL (≈ 0.279 µM)
MIC (MRSA Q670505): 0.25 µg/mL (≈ 0.139 µM)
MIC (MRSA U784439): 0.03 µg/mL (≈ 0.0167 µM)
MIC (MRSA V257345): 0.12 µg/mL (≈ 0.0669 µM)
MIC (MRSA V288615): 0.03 µg/mL (≈ 0.0167 µM)
MIC (MSSA V406985): 0.12 µg/mL (≈ 0.0669 µM)
MIC (MRSA NRS121-ORI^RS): 0.5 µg/mL (≈ 0.279 µM)
MIC (MRSA ATCC 33591): 0.06 µg/mL (≈ 0.0335 µM)
MIC (hVISA NRS36): 1 µg/mL (≈ 0.558 µM)
MIC (MSSA Q141066 [2]): 0.03 µg/mL (≈ 0.0167 µM)
MIC (hVISA NRS2 [3]): 0.25 µg/mL (≈ 0.139 µM)
zone of inhibition at 1250 µg/mL (MSSA Q141066 [4]): 20 mm
